We go through four compounds from patent publication US8722373B2, “Contaminant control in Zymomonas fermentation using virginiamycin” (E I du Pont de Nemours and Company, priority 2012, dated 2014).

The subject of test [1] is Zymomonas mobilis strain ZM4. The following applies: concentrations that are safe to use with yeast; Agrawan and Basappa 1996; cited from earlier work.
For another test, the system named is Z. mobilis strain ZW705. As to the kind of experiment: Tolerance of Z. mobilis to virginiamycin: growth in clarified MD07#3 hydrolysate. The test is classed as cell-based, Zymomonas mobilis. The following applies: 2.5 ppm and 5 ppm virginiamycin; clarified cellulosic biomass hydrolysate medium, conditions of Example 1. On the procedure: Z. mobilis strain ZW705 (described in General Methods) inoculum was prepared by reviving 2 mL of OD-10 frozen stock in MRM3G6 medium (10 g/L BBL yeast extract, 2 g/L KH2PO4, 1 g/L MgSO4*7H2O, 60 g/L glucose, pH 5.5) at 33° C. for ˜8 hr. This culture was used to inoculate tubes containing clarified MD07#3 hydrolysate (see General Methods) supplemented with 2 g/L yeast extract and various virginiamycin preparations at a 20% (final volume) inoculation rate, producing an initial OD of ˜0.5. Stocks of the virginiamycin-containing agents Lactrol®, Lactoside V™ or Lactoside 247™ were prepared at 1000 ppm in ethanol. These agents were added to the media at 2.5 ppm, 5 ppm, 10 ppm, or 20 ppm. […] The tubes were maintained at 33° C. with shaking for 32 hours, with growth monitored by measuring OD600.

The test system of test [2] is Lactobacillus plantarum strain ATCC 8014. Description: Contamination control in Z. mobilis seed medium (lactic acid formation). The test is classed as cell-based. The following applies: fermentation broth with media lacking cellulosic biomass hydrolysate. As to the method:
(§1) Fermentation samples were taken at timed intervals and analyzed for EtOH, residual sugars, and other metabolic products such as acetic acid, lactic acid, and glycerol using either a Waters HPLC system (Alliance system, Waters Corp., Milford, Mass.) or an Agilent 1100 Series LC; conditions=0.6 mL/min of 0.01 N H2SO4, injection volume=5 μL, autosampler temperature=10° C., column temperature=55° C., run time=25 min, detection by refractive index (maintained at 40° C.). The HPLC column was purchased from BioRad (Aminex HPX-87H, BioRad Inc., Hercules, Calif.). Analytes were quantified by refractive index detection and compared to known standards.
Z. mobilis strain ZW705 (described in General Methods) inoculum was prepared by reviving 2 mL of OD-10 frozen stock in MRM3G6 medium (10 g/L BBL yeast extract, 2 g/L KH2PO4, 1 g/L MgSO4*7H2O, 60 g/L glucose, pH 5.5) at 33° C. for ˜8 hr, at which point the OD was ˜2. Lactobacillus plantarum strain ATCC 8014 inoculum was prepared by inoculating MRS medium with an individual colony and allowing growth at 33° C. for 8 hr, at which point the OD was ˜0.4.
Seed medium (10 g/L Amberex695 yeast extract, 2 g/L KH2PO4, 5 g/L MgSO4*7H2O, 10 mM sorbitol, 150 g/L glucose, pH 5.5) was prepared and sterilized by autoclaving (121° C., 30 min). […]

The next test relates to L. plantarum. Description: Contaminated Z. mobilis hydrolysate fermentation with Lactrol in the medium (lactic acid). The note with it: fermentation broth with media containing cellulosic biomass hydrolysate. The test is classed as cell-based, Lactobacillus plantarum. On the procedure: as §1
To determine the Lactrol® dose required to prevent lactic acid formation during hydrolysate fermentation, a portion of intentionally-contaminated seed culture F1067 at EFT=19.3 hr (from Example 1) was used as a seed culture to inoculate cob hydrolysate medium (FRF13; see General Methods) (adjusted to pH 5.8, +10 mM sorbitol) at 10 vol % (final volume) containing either 0 ppm (sample F1069) or 2 ppm (sample F1071) of Lactrol®, which was then fermented at 33° C. (reduced to 30° C. at EFT=21 hr) and pH 5.8 (adjusted with 4 N NaOH). […]

For the compound `CC1(C)S[C@@H]2[C@H](NC(=O)Cc3ccccc3)C(=O)N2[C@H]1C(=O)O` [penicillin G], the “effect on growth of / safety for Zymomonas” value (“effect on growth of / safety” below) in test [1] is “safe for use with Zymomonas”.

As to `[H]/N=C(/N)N[C@H]1[C@H](O)[C@@H](O)[C@H](O[C@@H]2O[C@@H](C)[C@](O)(C=O)[C@H]2O[C@@H]2O[C@@H](CO)[C@H](O)[C@@H](O)[C@@H]2NC)[C@@H](N/C(N)=N\[H])[C@@H]1O` [streptomycin], the “effect on growth of / safety” value in test [1] is listed as “inhibitory to growth”.

Take polymixin: the “effect on growth of / safety” value in test [1] was “inhibitory to growth”.

Turning to virginiamycin, the “growth of Zymomonas cells (OD600) compared with absence of virginiamycin” value in the test on Z. mobilis strain ZW705 is reported as “improved growth”. For the same compound, the “concentration of virginiamycin that controls contaminating bacteria without affecting glucose utilization and ethanol production of Zymomonas cells” value in test [2] is “about 2 ppm”. Besides, the “concentration of virginiamycin that controls contaminating bacteria while maintaining typical ethanol production” value with L. plantarum is “at least 10 ppm”.
